In patent publication US20250215016A1, “ISOXAZOLE-HETEROCYCLIC DERIVATIVE, PHARMACEUTICAL COMPOSITION AND USE” (SHANGHAI SIMR BIOTECHNOLOGY CO., LTD, priority 2022, published 2025):

Biological target: human α2β3γ2 receptor (α2-GABAA receptor) (Homo sapiens (Human), UniProt P18507+P47869)
Experiment: Radioligand (3H-flunitrazepam) competition binding assay, BZD site; α2 vs α5 binding selectivity
Details: ratio of Ki at α2β3γ2 to Ki at α5β3γ2
Source text: α, β and γ subunits are essential for the formation of a complete functional GABAA receptor. In this example, HEK293 cell strains stably expressing human α5-GABAA receptor (comprising α5β3γ2 subunit) and α2-GABAA receptor (comprising α2β3γ2 subunit) were constructed and screened, respectively, by liposome transfection method (Felgner, P. L., et al., Proceedings of the National Academy of Sciences, 1987, 84:7413-7417). The specific subunit protein sequences are as follows: α5 subunit (protein sequence can be found in GenBank accession number: NM_000810.3); α2 subunit (protein sequence can be found in GenBank accession number: NM_000807.4); β3 subunit (protein sequence can be found in GenBank accession number: NM_000814.5); γ2 subunit (protein sequence can be found in GenBank accession number: NM_000816.3).
The above cell lines were subcultured. Amplification of α5β3γ2-HEK293 and α2β3γ2-HEK293 cells was used to test the affinity of the compounds to benzodiazepine site (BZD) of the GABAA receptor. During the passage of α5β3γ2-HEK293 cells, some of the suspended cells were spread on a glass slide pretreated with Poly-D-Lysine for electrophysiological testing.
Flunitrazepam is a non-specific reagent that binds to the BZD site efficiently. The affinity of the compounds to the BZD sites of the human α5β3γ2 and α2β3γ2 receptors can be determined by competing the compound with ^3H-flunitrazepam (isotope ^3H-labeled flunitrazepam) for binding to these two receptors.
Membrane preparation: HEK293 cells stably expressing human α5β3γ2 receptor or α2β3γ2 receptor were collected, suspended in 50 mM Tris-HCl buffer (pH=7.4), homogenized on ice by a homogenizer for 20 seconds 10 times, and centrifuged at 4° C., 1000 g for 10 min. The supernatant was collected, and the above steps were repeated. The supernatant was centrifuged (33800 g; centrifuge purchased from Thermo, rotor model: A27-8×50) at 4° C. for 60 min, and the precipitate was resuspended in Tris buffer (50 mM Tris-HCl, 10 mM MgCl2, 0.5 mM EDTA, 10% glycerol). The precipitate was the cell membrane. Protein content was determined by BCA (Bicinchoninic Acid) method (BCA kit from Pierce (Annoron)). The cell membrane was prepared into 1 ml aliquot and stored at −80° C.
Radioligand competition binding assay: the assay was carried out in a 200 μL system (96-well plate from Agilent) with 100 μL of cell membrane. The concentration of ^3H-flunitazepam (from PerkinElmer, lot: NET567250 UC) was 1 nM and the concentration of test compound was in the range 1×10^−5-10^−6 M. Flumazenil (from Tocris; lot: 1318) was used as a control. 1 μL of 2 mM flumazenil (final concentration 10 μM) was added to the Low signal control well (Low control, LC) and 1 μL of DMSO (from Sigma aldrich, lot: 472301) was added to the High signal control well (High control, HC). The final target membrane protein concentration was 5 μg/well. All test compound sample stocks were 10 mM DMSO solutions. The working concentration of the samples is to dilute all samples with DMSO to 0.2 mM, and then perform 4-fold continuous gradient dilution for a total of 8 concentration gradients. The 96-well plate was sealed with a plate sealing membrane and then incubated on a shaker at room temperature for 1 hour. Meanwhile, GF/C filter plate was soaked with a plate soaking buffer (0.3% PEI, polyethyleneimine, purchased from Sigma aldrich, model: P314, stored at 4° C.) for at least 0.5 hours. After completion of binding incubation, the cells were collected with a cell collector onto the GF/C filter plate and washed four times with a plate washing buffer (50 mM Tris-HCl, pH 7.4, stored at 4° C.). […]

SMILES | Selectivity α2 ki/α5 ki
Cc1onc(-c2ccc(F)cc2)c1COc1ccc(-c2nnc3n2CCS(=O)(=O)C3)cn1 [Compound 7, 3-(6-((3-(4-fluorophenyl)-5-methylisoxazol-4-yl)methoxy)pyridin-3-yl)-5,6-dihydro-8H-[1,2,4]triazolo[3,4-c][1,4]thiazine 7,7-dioxide] | 11.01 folds
Cc1onc(-c2ccc(F)cc2)c1COc1ccc(N2CCN3CCNC(=O)C3C2)nn1 (centres unmarked) [Compound 10, 8-(6-((3-(4-fluorophenyl)-5-methylisoxazol-4-yl)methoxy)pyridazin-3-yl) hexahydro-2H-pyrazino[1,2-a]pyrazin-1 (6H)-one] | 63.3 folds
Cc1onc(-c2ccc(F)cc2)c1COc1ccc(-c2nnc3n2CCOC3)cn1 [Compound 17, 3-(6-((3-(4-fluorophenyl)-5-methylisoxazol-4-yl)methoxy)pyridin-3-yl)-5,6-dihydro-8H-[1,2,4]triazolo[3,4-c][1,4]oxazine] | 23.1 folds
Cc1onc(-c2ccc(F)cc2)c1COc1ccc(-c2nnc3n2CCOC3)nn1 [Compound 18, 3-(6-((3-(4-fluorophenyl)-5-methylisoxazol-4-yl)methoxy)pyridazin-3-yl)-5,6-dihydro-8H-[1,2,4]triazolo[3,4-c][1,4]oxazine] | 41.4 folds
Cc1onc(-c2ccc(F)cc2)c1COc1cnc(-c2nnc3n2CCOC3)cn1 [Compound 19, 3-(5-((3-(4-fluorophenyl)-5-methylisoxazol-4-yl)methoxy)pyrazin-2-yl)-5,6-dihydro-8H-[1,2,4]triazolo[3,4-c][1,4]oxazine] | 93.8 folds
Cc1onc(-c2ccc(F)cc2)c1COc1cnc(-c2nnc3n2CCC3)cn1 [Compound 23, 4-(((5-(6,7-dihydro-5H-pyrrolo[2,1-c][1,2,4]triazol-3-yl)pyrazin-2-yl)oxy)methyl)-3-(4-fluorophenyl)-5-methylisoxazole] | 90.2 folds
Cc1onc(-c2ccc(F)cc2)c1COc1cnc(-c2nnc3n2CCCOC3)cn1 [Compound 24, 3-(5-((3-(4-fluorophenyl)-5-methylisoxazol-4-yl)methoxy)pyrazin-2-yl)-6,7-dihydro-5H,9H-[1,2,4]triazolo[3,4-c][1,4]oxazepane] | 39.2 folds
Cc1onc(-c2ccc(F)cc2)c1COc1cnc(-c2nnc3n2CCOCC3)cn1 [Compound 33, 3-(5-((3-(4-fluorophenyl)-5-methylisoxazol-4-yl)methoxy)pyrazin-2-yl)-5,6,8,9-tetrahydro-[1,2,4]triazolo[4,3-d][1,4]oxazepane] | 86.7 folds
Cc1onc(-c2ccc(F)cc2)c1COc1ccc(N2CCn3ccnc3C2=O)nn1 [Compound 37, 7-(6-((3-(4-fluorophenyl)-5-methylisoxazol-4-yl)methoxy)pyridazin-3-yl)-6,7-dihydroimidazo[1,2-a]pyrazin-8(5H)-one] | 48.6 folds
Cc1onc(-c2ccc(F)cc2)c1COc1ccc(-c2cc3n(c(=O)n2)C[C@]24CO[C@H](CN32)C4)cn1 [Compound 38] | 122.2 folds
Cc1onc(-c2ccc(F)cc2)c1COc1ccc(-c2cc3n(c(=O)n2)CCN3C)cn1 [Compound 41, 7-(6-((3-(4-fluorophenyl)-5-methylisoxazol-4-yl)methoxy)pyridin-3-yl)-1-methyl-2,3-dihydroimidazo[1,2-c]pyrimidin-5(1H)-one] | 75.8 folds
